Measurements: patent US10183014B2, “Ocular formulations for drug-delivery and protection of the anterior segment of the eye” (PanOptica, Inc., priority 2014, dated 2019)
Like-named read-outs stand apart in the source and are kept apart here.

Assay: Ocular pharmacokinetics of formulations, Example 20-4
Format: in vivo, Dutch Belted rabbits
Details: Day 5, 1 hr post dose
Procedure: The study design (Table 18-1) consisted of forty-nine (49) Dutch Belted rabbits, each receiving a 30 μL bilateral topical ocular dose.
Ocular sampling occurred one hour following the first daily dose on Day 5 for all groups. Whole blood samples using K2EDTA as an anticoagulant were collected from all animals on Day 5, 1 hour post dose. The whole blood was placed on ice until samples were spun in a centrifuge to separate the plasma. Aqueous humor, conjunctiva, cornea, central retina, peripheral retina, central choroid, and peripheral choroid samples were collected following necropsy. Samples were then frozen at −70° C. or lower. For all Groups 1-16, plasma, central retina, central choroid, and cornea samples were assayed for PAN-90806.

`Cl.NC(=O)c1c(OCc2c(F)cc(Br)cc2F)nsc1NC(=O)NCCCCN1CCCC1` [Compound-I, 3-[(4-bromo-2,6-difluorophenyl)methoxy]-5-[[[[4-(1-pyrrolidinyl)butyl]amino]carbonyl]amino]-4-isothiazolecarboxamide hydrochloride] gave a concentration at 1 h (Dutch Belted, rabbit, central choroid, topical, 4 mg/mL (30 μL per eye, bilateral), pH 6, Group 3: 4 mg/mL Salt, eye drops solution (control), pH 6, QD, read-out: Central Choroid concentration) of 0.181 µM, a concentration at 1 h (Dutch Belted, rabbit, central choroid, topical, 4 mg/mL (30 μL per eye, bilateral), Group 16: 4 mg/mL Salt suspension, PSD 30 μm/XL, TRIS 0.60%, glycerol 2%, HEC 0.2%, HPMC 0.08%, VitK3 1 μM, pH 7, QD, read-out: Central Choroid concentration) of 0.208 µM and a concentration at 1 h (Dutch Belted, rabbit, central choroid, topical, 30 μL per eye of 4 mg/mL suspension, Group 7: 4 mg/mL Salt suspension, PSD 30 μm/XL, TRIS 0.60%, glycerol 2%, HEC 0.3%, Tylox 0.04%, VitK3 1 μM, pH 6, QD, read-out: Central Choroid concentration) of 0.142 µM. For the same compound, the concentration at 1 h (Dutch Belted, rabbit, central choroid, topical, 30 μL per eye of 4 mg/mL suspension, Group 9: 4 mg/mL Salt suspension, PSD 30 μm/XL, TRIS 0.60%, glycerol 2%, HEC 0.3%, Tylox 0.04%, VitK3 1 μM, pH 7, QD, read-out: Central Choroid concentration) was 0.224 µM, the concentration at 1 h (Dutch Belted, rabbit, central choroid, topical, 30 μL per eye of 6 mg/mL suspension, Group 6: 6 mg/mL Salt suspension, PSD 30 μm/XL, TRIS 0.60%, glycerol 2%, HEC 0.2%, HPMC 0.08%, VitK3 1 μM, pH 6, QD, read-out: Central Choroid concentration) was 0.243 µM and the concentration at 1 h (Dutch Belted, rabbit, central retina, topical, 0.3 mg/mL (30 μL per eye, bilateral), pH 6, Group 1: 0.3 mg/mL Salt, pH 6, BID, read-out: Central Retina concentration) was 0.0163 µM. For the same compound, the concentration at 1 h (Dutch Belted, rabbit, central retina, topical, 1 mg/mL (30 μL per eye, bilateral), pH 6, Group 2: 1 mg/mL Salt, eye drops solution (control), pH 6, QD, read-out: Central Retina concentration) was 0.0347 µM, the concentration at 1 h (Dutch Belted, rabbit, central retina, topical, 4 mg/mL (30 μL per eye, bilateral), pH 6, Group 3: 4 mg/mL Salt, eye drops solution (control), pH 6, QD, read-out: Central Retina concentration) was 0.0837 µM and the concentration at 1 h (Dutch Belted, rabbit, central retina, topical, 4 mg/mL (30 μL per eye, bilateral), Group 16: 4 mg/mL Salt suspension, PSD 30 μm/XL, TRIS 0.60%, glycerol 2%, HEC 0.2%, HPMC 0.08%, VitK3 1 μM, pH 7, QD, read-out: Central Retina concentration) was 0.0744 µM. It also gave a concentration at 1 h (Dutch Belted, rabbit, central retina, topical, 30 μL per eye of 6 mg/mL suspension, Group 6: 6 mg/mL Salt suspension, PSD 30 μm/XL, TRIS 0.60%, glycerol 2%, HEC 0.2%, HPMC 0.08%, VitK3 1 μM, pH 6, QD, read-out: Central Retina concentration) of 0.136 µM, a concentration at 1 h (Dutch Belted, rabbit, cornea, topical, 0.3 mg/mL (30 μL per eye, bilateral), pH 6, Group 1: 0.3 mg/mL Salt, pH 6, BID, read-out: Cornea concentration) of 3.33 µM and a concentration at 1 h (Dutch Belted, rabbit, cornea, topical, 1 mg/mL (30 μL per eye, bilateral), pH 6, Group 2: 1 mg/mL Salt, eye drops solution (control), pH 6, QD, read-out: Cornea concentration) of 7.06 µM. For the same compound, the concentration at 1 h (Dutch Belted, rabbit, cornea, topical, 4 mg/mL (30 μL per eye, bilateral), pH 6, Group 3: 4 mg/mL Salt, eye drops solution (control), pH 6, QD, read-out: Cornea concentration) was 15.9 µM, the concentration at 1 h (Dutch Belted, rabbit, cornea, topical, 4 mg/mL (30 μL per eye, bilateral), Group 16: 4 mg/mL Salt suspension, PSD 30 μm/XL, TRIS 0.60%, glycerol 2%, HEC 0.2%, HPMC 0.08%, VitK3 1 μM, pH 7, QD, read-out: Cornea concentration) was 14.7 µM and the concentration at 1 h (Dutch Belted, rabbit, cornea, topical, 30 μL per eye of 6 mg/mL suspension, QD, pH 6, Group 6: 6 mg/mL Salt suspension, PSD 30 μm/XL, TRIS 0.60%, glycerol 2%, HEC 0.2%, HPMC 0.08%, VitK3 1 μM, pH 6, QD, read-out: Cornea concentration) was 14.4 µM. For the same compound, the concentration at 1 h (Dutch Belted, rabbit, plasma, topical, 1 mg/mL (30 μL per eye, bilateral), pH 6, Group 2: 1 mg/mL Salt, eye drops solution (control), pH 6, QD, read-out: Plasma concentration) was 0.00267 µM, the concentration at 1 h (Dutch Belted, rabbit, plasma, topical, 4 mg/mL (30 μL per eye, bilateral), pH 6, Group 3: 4 mg/mL Salt, eye drops solution (control), pH 6, QD, read-out: Plasma concentration) was 0.0045 µM and the concentration at 1 h (Dutch Belted, rabbit, plasma, topical, 30 μL per eye of 4 mg/mL suspension, Group 7: 4 mg/mL Salt suspension, PSD 30 μm/XL, TRIS 0.60%, glycerol 2%, HEC 0.3%, Tylox 0.04%, VitK3 1 μM, pH 6, QD, read-out: Plasma concentration) was 0.00556 µM. The concentration at 1 h (Dutch Belted, rabbit, plasma, topical, 30 μL per eye of 6 mg/mL suspension, QD, pH 6, Group 6: 6 mg/mL Salt suspension, PSD 30 μm/XL, TRIS 0.60%, glycerol 2%, HEC 0.2%, HPMC 0.08%, VitK3 1 μM, pH 6, QD, read-out: Plasma concentration) was 0.00998 µM, the Plasma concentration (Group 1: 0.3 mg/mL Salt, pH 6, BID, LLOQ = 0.00188 μM) was “<LLOQ” and the “Central Choroid concentration” value (Group 1: 0.3 mg/mL Salt, pH 6, BID, LLOQ = 0.0563 μM) was “<LLOQ”. It also gave a concentration at 1 h (Group 7: 4 mg/mL Salt suspension, PSD 30 μm/XL, TRIS 0.60%, glycerol 2%, HEC 0.3%, Tylox 0.04%, VitK3 1 μM, pH 6, QD, read-out: Central Retina concentration) of 0.0697 µM, a Plasma concentration (Group 8: 4 mg/mL Salt suspension, PSD 30 μm/XL, TRIS 0.60%, glycerol 2%, HEC 0.2%, Tylox 0.04%, VitK3 1 μM, pH 6, QD) of 0.00662 µM and a concentration at 1 h (Group 8: 4 mg/mL Salt suspension, PSD 30 μm/XL, TRIS 0.60%, glycerol 2%, HEC 0.2%, Tylox 0.04%, VitK3 1 μM, pH 6, QD, read-out: Central Choroid concentration) of 0.152 µM. For the same compound, the concentration at 1 h (Group 8: 4 mg/mL Salt suspension, PSD 30 μm/XL, TRIS 0.60%, glycerol 2%, HEC 0.2%, Tylox 0.04%, VitK3 1 μM, pH 6, QD, read-out: Central Retina concentration) was 0.0901 µM, the Plasma concentration (Group 9: 4 mg/mL Salt suspension, PSD 30 μm/XL, TRIS 0.60%, glycerol 2%, HEC 0.3%, Tylox 0.04%, VitK3 1 μM, pH 7, QD) was 0.00738 µM and the concentration at 1 h (Group 9: 4 mg/mL Salt suspension, PSD 30 μm/XL, TRIS 0.60%, glycerol 2%, HEC 0.3%, Tylox 0.04%, VitK3 1 μM, pH 7, QD, read-out: Central Retina concentration) was 0.102 µM. The Plasma concentration (Group 10: 4 mg/mL Salt suspension, PSD 30 μm/XL, TRIS 0.60%, glycerol 2%, HEC 0.2%, Tylox 0.04%, VitK3 1 μM, pH 7, QD) was 0.00528 µM, the concentration at 1 h (Group 10: 4 mg/mL Salt suspension, PSD 30 μm/XL, TRIS 0.60%, glycerol 2%, HEC 0.2%, Tylox 0.04%, VitK3 1 μM, pH 7, QD, read-out: Central Choroid concentration) was 0.166 µM and the concentration at 1 h (Group 10: 4 mg/mL Salt suspension, PSD 30 μm/XL, TRIS 0.60%, glycerol 2%, HEC 0.2%, Tylox 0.04%, VitK3 1 μM, pH 7, QD, read-out: Central Retina concentration) was 0.0502 µM. The Plasma concentration (Group 11: 4 mg/mL Salt suspension, PSD 30 μm/XL, TRIS 0.60%, glycerol 2%, HEC 0.3%, HPMC 0.08%, VitK3 1 μM, pH 6, QD) was 0.00465 µM, the concentration at 1 h (Group 11: 4 mg/mL Salt suspension, PSD 30 μm/XL, TRIS 0.60%, glycerol 2%, HEC 0.3%, HPMC 0.08%, VitK3 1 μM, pH 6, QD, read-out: Central Choroid concentration) was 0.154 µM and the concentration at 1 h (Group 11: 4 mg/mL Salt suspension, PSD 30 μm/XL, TRIS 0.60%, glycerol 2%, HEC 0.3%, HPMC 0.08%, VitK3 1 μM, pH 6, QD, read-out: Central Retina concentration) was 0.0796 µM. The Plasma concentration (Group 12: 4 mg/mL Salt suspension, PSD 30 μm/XL, TRIS 0.60%, glycerol 2%, HEC 0.2%, HPMC 0.08%, VitK3 1 μM, pH 6, QD) was 0.00366 µM, the concentration at 1 h (Group 12: 4 mg/mL Salt suspension, PSD 30 μm/XL, TRIS 0.60%, glycerol 2%, HEC 0.2%, HPMC 0.08%, VitK3 1 μM, pH 6, QD, read-out: Central Choroid concentration) was 0.137 µM and the concentration at 1 h (Group 12: 4 mg/mL Salt suspension, PSD 30 μm/XL, TRIS 0.60%, glycerol 2%, HEC 0.2%, HPMC 0.08%, VitK3 1 μM, pH 6, QD, read-out: Central Retina concentration) was 0.0490 µM. The Plasma concentration (Group 13: 4 mg/mL Salt suspension, PSD Native (≈50) μm/XXL, TRIS 0.60%, glycerol 2%, HEC 0.2%, HPMC 0.08%, VitK3 1 μM, pH 6, QD) was 0.00524 µM.
